Assay results reported in US20110039762A1, “TARGETED ANTIMICROBIAL MOIETIES” (C3 JIAN, INC., priority 2009, published 2011).
“Also recorded” adds a separate entry of the source. Ends that are not written are not given here.

Assays:
[1] = system: microorganisms (e.g., bacteria, yeasts, fungi); test: Targeting peptide binding to target microorganisms (Table 3); conditions: preferably 1x PBS; for Target(s) (microorganisms bound by the targeting peptide): peptide binding in aqueous buffers varied by peptide solubility
B. subtilis = test: Kill or inhibit growth/proliferation; morphology, biofilm and growth disruption (Tables 5, 6); assay type: cell-based, Bacillus subtilis; design: key: A: Peptide aggregates; B: Less hyphal formation; Clumps; Diffuse clumps and small polyps; F: Diffuse growth; H: Thin; I: Growth inhibition; Microcolony formation; Rippled; Small polyps; Thick; W: Halo formation on top, microlonies on bottom; also: test concentration or dose not given here
M. luteus = test: as above; assay type: cell-based, Micrococcus luteus; design: key: A: Peptide aggregates; B: Less hyphal formation; Clumps; Diffuse clumps and small polyps; F: Diffuse growth; H: Thin; I: Growth inhibition; Microcolony formation; Rippled; Small polyps; Thick; W: Halo formation on top, microlonies on bottom; also: test concentration or dose not given here
S. pneumoniae = test: as above; assay type: cell-based, Streptococcus pneumoniae; design: key: A: Peptide aggregates; B: Less hyphal formation; Clumps; Diffuse clumps and small polyps; F: Diffuse growth; H: Thin; I: Growth inhibition; Microcolony formation; Rippled; Small polyps; Thick; W: Halo formation on top, microlonies on bottom
C. albicans = test: as above; assay type: cell-based, Candida albicans; design: key: A: Peptide aggregates; B: Less hyphal formation; Clumps; Diffuse clumps and small polyps; F: Diffuse growth; H: Thin; I: Growth inhibition; Microcolony formation; Rippled; Small polyps; Thick; W: Halo formation on top, microlonies on bottom
C. jejuni = test: as above; assay type: cell-based, Campylobacter jejuni; design: key: A: Peptide aggregates; B: Less hyphal formation; Clumps; Diffuse clumps and small polyps; F: Diffuse growth; H: Thin; I: Growth inhibition; Microcolony formation; Rippled; Small polyps; Thick; W: Halo formation on top, microlonies on bottom; also: test concentration or dose not given here
MRSA = test: as above; assay type: cell-based, Methicillin-resistant Staphylococcus aureus; design: key: A: Peptide aggregates; B: Less hyphal formation; Clumps; Diffuse clumps and small polyps; F: Diffuse growth; H: Thin; I: Growth inhibition; Microcolony formation; Rippled; Small polyps; Thick; W: Halo formation on top, microlonies on bottom; also: test concentration or dose not given here
S. epidermidis = test: as above; assay type: cell-based, Staphylococcus epidermidis; design: key: A: Peptide aggregates; B: Less hyphal formation; Clumps; Diffuse clumps and small polyps; F: Diffuse growth; H: Thin; I: Growth inhibition; Microcolony formation; Rippled; Small polyps; Thick; W: Halo formation on top, microlonies on bottom
microorganisms = test: Peptides having multiple activities (targeting/binding, antimicrobial, growth or phenotype altering)
Description: In certain embodiments, peptides described herein can have multiple activities. Thus for example, a peptide can have both binding/targeting activity and antimicrobial activity. Such peptides can be used, e.g., in a chimeric construct, for any or all of these properties. Thus, for example, a peptide designated “B” in Table 8 can be used as a targeting peptide. If it is also designated G or M it can also be used for antimicrobial activity.

E. faecalis = test: Kill or inhibit growth/proliferation; morphology, biofilm and growth disruption (Tables 5, 6); assay type: cell-based, Enterococcus faecalis; design: key: A: Peptide aggregates; B: Less hyphal formation; Clumps; Diffuse clumps and small polyps; F: Diffuse growth; H: Thin; I: Growth inhibition; Microcolony formation; Rippled; Small polyps; Thick; W: Halo formation on top, microlonies on bottom; also: test concentration or dose not given here
C. jeikeium = test: as above; assay type: cell-based, Corynebacterium jeikeium; design: key: A: Peptide aggregates; B: Less hyphal formation; Clumps; Diffuse clumps and small polyps; F: Diffuse growth; H: Thin; I: Growth inhibition; Microcolony formation; Rippled; Small polyps; Thick; W: Halo formation on top, microlonies on bottom; also: test concentration or dose not given here
E. coli = test: as above; assay type: cell-based, Escherichia coli; design: key: A: Peptide aggregates; B: Less hyphal formation; Clumps; Diffuse clumps and small polyps; F: Diffuse growth; H: Thin; I: Growth inhibition; Microcolony formation; Rippled; Small polyps; Thick; W: Halo formation on top, microlonies on bottom
[2] = microorganism(s) the targeting peptide binds, peptide binding conducted in aqueous buffers varied by peptide solubility
For Organism, effect (morphology, biofilm and growth disruption) in this document: test concentration or dose not given here.
For Organism, effect in this document: test concentration or dose not given here.

Substance | Organism, effect (S. pneumoniae) | Organism, effect (C. albicans) | Organism, effect (MRSA) | Organism, effect (S. epidermidis) | Activities (microorganisms) | Organism, effect (E. faecalis) | Target(s) (microorganisms bound by the targeting peptide) [1] | other results
HCVIGNVVDIANLLKRRAVYRDIADVIKMR [PF-071] | S. pneumoniae (A) | C. albicans (B) | MRSA (C) | S. epidermidis (R) | G B |  |  | Target(s) ([1]; microorganism the targeting peptide binds, binding in aqueous buffers varied by peptide solubility): S. epidermidis and E. coli and P. aeruginosa and C. albicans and MRSA and S. pneumoniae and E. faecalis; Organism, effect (B. subtilis): B. subtilis (D); Organism, effect (M. luteus): M. luteus (R); Organism, effect (C. jejuni): C. jejuni (A)
PF-057: peptide having multiple activities (chain 1 TMIVISIPRFEEYMKARHKKWM; chain 2 TMIVISIPRFEEYMKARHKKWM; Peptide with targeting and/or antimicrobial activity) | S. pneumoniae (R) | C. albicans (A) | MRSA (M) | S. epidermidis (D) | G B | E. faecalis (A) |  | Organism, effect (C. jeikeium): C. jeikeium (A); Organism, effect (M. luteus): M. luteus (C); Organism, effect (C. jejuni): C. jejuni (D); Organism, effect (E. coli): E. coli (M)
PF-175: peptide having multiple activities (RRRPAGQRPEKASQAMIAA; Peptide with targeting and/or antimicrobial activity) | S. pneumoniae (A) | C. albicans (B) |  |  | G B |  |  | Target(s) ([1]; microorganism(s) the targeting peptide binds, binding in aqueous buffers depending on peptide solubility): S. epidermidis; also recorded: E. faecalis; Organism, effect (B. subtilis): B. subtilis (D); Organism, effect (M. luteus): M. luteus (S); Organism, effect (C. jejuni): C. jejuni (M)
PF-426: peptide having multiple activities (MLQKYTQMISVTKCIITKNKKTQENVDAYN; Peptide with targeting and/or antimicrobial activity) | S. pneumoniae (D) | C. albicans (A) | MRSA (D) | S. epidermidis (D) | G B | E. faecalis (D) |  | Target(s) [1, 2]: S. epidermidis and E. coli and P. aeruginosa and C. albicans and MRSA and S. pneumoniae and E. faecalis and C. jeikeium; Organism, effect (C. jejuni): C. jejuni (D); Organism, effect (E. coli): E. coli (C)
PF-526: peptide having multiple activities (chain 1 VLLLFIFQPFQKQLL-NH2; chain 2 VLLLFIFQPFQKQLL-NH2) | S. pneumoniae (R) | C. albicans (C) | MRSA (C) | S. epidermidis (C) | G B |  |  | Organism, effect (E. coli): E. coli (R)
PF-528: peptide having multiple activities (chain 1 LVDVVVLIRRHLPKSCS-NH2; chain 2 LVDVVVLIRRHLPKSCS-NH2; cysteine pairing not given here) | S. pneumoniae (R) | C. albicans (C) | MRSA (H) | S. epidermidis (H) | G B |  |  | Target(s) [1, 2]: S. epidermidis and P. aeruginosa and C. albicans and MRSA and S. pneumoniae and E. faecalis; Organism, effect (E. coli): E. coli (H)
PF-617: peptide having multiple activities (PMNAAEPE; Peptide with targeting and/or antimicrobial activity) | S. pneumoniae (I) | C. albicans (H) |  |  | G B | E. faecalis (H) | P. aeruginosa; also recorded: C. albicans | 
PF-627: peptide having multiple activities (INDLLSYFTLHEK; Peptide with targeting and/or antimicrobial activity) | S. pneumoniae (I) | C. albicans (B) | MRSA (R) | S. epidermidis (H) | G B | E. faecalis (H) | S. epidermidis and P. aeruginosa and MRSA and S. pneumoniae and E. faecalis and C. jeikeium | 
PF-636: peptide having multiple activities (chain 1 LVRLA; chain 2 LVRLA; Peptide with targeting and/or antimicrobial activity) | S. pneumoniae (H) | C. albicans (B) |  |  | G B | E. faecalis (H) | S. epidermidis and C. albicans and MRSA and S. pneumoniae and E. faecalis | Organism, effect (B. subtilis): B. subtilis (H)
PF-639: peptide having multiple activities (chain 1 QATQIKSWIDRLLVSED; chain 2 QATQIKSWIDRLLVSED; Peptide with targeting and/or antimicrobial activity) | S. pneumoniae (I) | C. albicans (B) | MRSA (R) |  | G B | E. faecalis (H) | S. pneumoniae; also recorded: C. jeikeium | 
PF-640: peptide having multiple activities (chain 1 MGDINRNF; chain 2 MGDINRNF; Peptide with targeting and/or antimicrobial activity) | S. pneumoniae (I) | C. albicans (B) |  |  | G B | E. faecalis (H) | C. albicans | 
PF-684 (chain 1 RKLSLASGFALWRRSLV; chain 2 RKLSLASGFALWRRSLV; Peptide with targeting and/or antimicrobial activity) |  |  |  |  |  |  | Mycobacteria spp | Organism, effect (morphology, biofilm and growth disruption) (E. faecalis): E. faecalis (A); Organism, effect (morphology, biofilm and growth disruption) (S. pneumoniae): S. pneumoniae (C); Organism, effect (morphology, biofilm and growth disruption) (C. albicans): C. albicans (B)
PF-686: peptide having multiple activities (chain 1 LAVLMGYIGYRGWSGKRHINRQ; chain 2 LAVLMGYIGYRGWSGKRHINRQ; Peptide with targeting and/or antimicrobial activity) |  |  |  |  | G B |  | M. smegmatis | Organism, effect (morphology, biofilm and growth disruption) (B. subtilis): B. subtilis (I); Organism, effect (morphology, biofilm and growth disruption) (E. faecalis): E. faecalis (R); Organism, effect (morphology, biofilm and growth disruption) (S. pneumoniae): S. pneumoniae (A); Organism, effect (morphology, biofilm and growth disruption) (C. albicans): C. albicans (B); Organism, effect (morphology, biofilm and growth disruption) (MRSA): MRSA (M); Organism, effect (morphology, biofilm and growth disruption) (S. epidermidis): S. epidermidis (H)
PF-698 (chain 1 SSGRAGVKCRRPTGR; chain 2 SSGRAGVKCRRPTGR; Peptide with targeting and/or antimicrobial activity) |  |  |  |  |  |  | Mycobacteria spp | Organism, effect (morphology, biofilm and growth disruption) (E. faecalis): E. faecalis (A); Organism, effect (morphology, biofilm and growth disruption) (S. pneumoniae): S. pneumoniae (A); Organism, effect (morphology, biofilm and growth disruption) (C. albicans): C. albicans (H)
